Results on two compounds are retold here after patent US7226761B2, “Manufacture of five-carbon sugars and sugar alcohols” (Danisco Sweeteners Oy, priority 1992, dated 2007).

For experiment [1], the system named is strains H1915 and H1916. To be noted: approximately 0.5 mM H2O2, 1.5 h; both strains.
Description: Strains H1915 and H1916 were cultivated to logarithmic growth phase. The cells were collected and suspended into synthetic complete medium lacking histidine and uracil to an average density of OD600 20. Glucose was added to a final concentration of 20 g/l and a sample was taken immediately. The cells were incubated in a 30° C. shaker (250 rpm) for 2.5 h and the first sample was taken. Then H2O2 was added to a concentration of approximately 0.5 mM and incubation continued for an additional 1.5 h, when the second sample was taken. The OD600 was measured, cells were removed by centrifugation, and the growth medium samples were analyzed by HPLC (Waters device, Aminex HPX-87H Ion Exclusion Column, see example 17).
Experiment [2] relates to TKL1 deficient strain H1764. The experiment in a line: Growth of TKL1 deficient strain on galactose plates containing D-xylulose. The following applies: 2% galactose plates. It is filed as cell-based, Saccharomyces cerevisiae. The procedure: The genomic library of Z. rouxii was transformed into the TKL1 deficient strain of Saccharomyces cerevisiae (H1764, see example 12) and 10,000 independent clones were obtained. We have observed that the TKL1 deficient strain H1764 is unable to grow on 2% galactose plates containing 0.3% or higher concentrations of D-xylulose (probably due to toxic concentrations of 5-carbon sugar phosphates accumulating). The independent clones were plated with 0.5% D-xylulose (synthetic complete medium with 2% galactose, 0.5% xylulose and 3% xylose lacking leucine for selection of the library plasmid) and screened for complementation of growth on these plates.

As for `OO` [hydrogen peroxide], in experiment [1], the “increase of total polyol and pentose production” value is 2 fold.

In the case of `O=C(CO)[C@@H](O)[C@H](O)CO` [D-xylulose], the “D-xylulose concentration at which the strain is unable to grow” value in experiment [2] was not below 0.3%.
